The source made the active and inactive calls. No rule for the calls is given here.
System: rodent carcinogenicity bioassays, tumor incidence
Assay: CCRIS carcinogenicity studies
How it was run: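 Archive of carcinogenicity, mutagenicity, tumor promotion and tumor inhibition results drawn from journals, NCI reports and other sources, expert-reviewed; covers 1985-2011 and is no longer updated.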

SMILES: Nc1c(Cl)c(F)nc(OCC(=O)O)c1Cl
- carcinogen call (Species: Mouse, Strain/Sex: CD-1/Female (60/Group), Route: Oral, Dose: 0, 100, 500, 1000 mg/kg/day of 98.9% fluroxypyr in diet for 18 mo, study duration 18 mo, Dose: 0, 100, 500, 1000 mg/kg/day of 98.9% fluroxypyr in diet for 18 mo, study duration 18 mo): inactive; negative
- carcinogen call (Species: Mouse, Strain/Sex: CD-1/Male (60/Group), Route: Oral, Dose: 0, 100, 500, 1000 mg/kg/day of 98.9% fluroxypyr in diet for 18 mo, study duration 18 mo, Dose: 0, 100, 500, 1000 mg/kg/day of 98.9% fluroxypyr in diet for 18 mo, study duration 18 mo): inactive; negative
- carcinogen call (Species: Rat, Strain/Sex: Fischer 344/Female (50/Group), Route: Oral, Dose: 0, 100, 500, 1000 mg/kg/day of 99.0% fluroxypyr in diet for 2 yr, study duration 2 yr, Dose: 0, 100, 500, 1000 mg/kg/day of 99.0% fluroxypyr in diet for 2 yr, study duration 2 yr): inactive; negative
- carcinogen call (Species: Rat, Strain/Sex: Fischer 344/Male (50/Group), Route: Oral, Dose: 0, 100, 500, 1000 mg/kg/day of 99.0% fluroxypyr in diet for 2 yr, study duration 2 yr, Dose: 0, 100, 500, 1000 mg/kg/day of 99.0% fluroxypyr in diet for 2 yr, study duration 2 yr): inactive; negative

SMILES: CCCCC(CC)CO (centres undefined)
- carcinogen call (Species: MOUSE, Strain/Sex: B6C3F1/FEMALE, Route: GAVAGE, Dose: 0, 50, 200, 750 MG/KG/D 5 D/WK FOR 18 MO (STUDY DURATION: 18 MO), Dose: 0, 50, 200, 750 MG/KG/D 5 D/WK FOR 18 MO (STUDY DURATION: 18 MO)): inactive; negative
- carcinogen call (Species: MOUSE, Strain/Sex: B6C3F1/MALE, Route: GAVAGE, Dose: 0, 50, 200, 750 MG/KG/D 5 D/WK FOR 18 MO (STUDY DURATION: 18 MO), Dose: 0, 50, 200, 750 MG/KG/D 5 D/WK FOR 18 MO (STUDY DURATION: 18 MO)): inactive; negative
- carcinogen call (Species: RAT, Strain/Sex: F344/FEMALE, Route: GAVAGE, Dose: 0, 50, 150, 500 MG/KG/D 5 D/WK FOR 24 MO (STUDY DURATION: 24 MO), Dose: 0, 50, 150, 500 MG/KG/D 5 D/WK FOR 24 MO (STUDY DURATION: 24 MO)): inactive; negative
- carcinogen call (Species: RAT, Strain/Sex: F344/MALE, Route: GAVAGE, Dose: 0, 50, 150, 500 MG/KG/D 5 D/WK FOR 24 MO (STUDY DURATION: 24 MO), Dose: 0, 50, 150, 500 MG/KG/D 5 D/WK FOR 24 MO (STUDY DURATION: 24 MO)): inactive; negative

SMILES: CC1COCCN1N=O (centres undefined)
- carcinogen call (Species: RAT, Strain/Sex: F344/FEMALE, Route: ORAL, Dose: 45 MG/L IN DRINKING WATER FOR 26 WK, Tumor Site: Type of Lesion: LIVER: HEPATOCELLULAR CARCINOMA, HEMANGIOENDOTHELIAL SARCOMA, ESOPHAGUS: PAPILLOMA, CARCINOMA): active; positive

SMILES: Cc1ccc(N)cc1
- carcinogen call (Species: MOUSE, Route: ORAL, Tumor Site: Type of Lesion: LIVER): active; positive

SMILES: CN(C)CCOC(C)(c1ccccc1)c1ccccn1 (centres undefined)
- carcinogen call (Species: MOUSE, Strain/Sex: B6C3F1/FEMALE, Route: ORAL, Dose: 0, 190, 375, 750 PPM IN DIET FOR 2 YR (STUDY DURATION: 2 YR), Dose: 0, 190, 375, 750 PPM IN DIET FOR 2 YR (STUDY DURATION: 2 YR), Tumor Site: Type of Lesion: LIVER: HEPATOCELLULAR ADENOMA, THYROID: FOLLICULAR CELL ADENOMA): active; positive
- carcinogen call (Species: MOUSE, Strain/Sex: B6C3F1/MALE, Route: ORAL, Dose: 0, 190, 375, 750 PPM IN DIET FOR 2 YR (STUDY DURATION: 2 YR), Dose: 0, 190, 375, 750 PPM IN DIET FOR 2 YR (STUDY DURATION: 2 YR), Tumor Site: Type of Lesion: LIVER: HEPATOCELLULAR ADENOMA, THYROID: FOLLICULAR CELL ADENOMA): active; positive
- carcinogen call (Species: RAT, Strain/Sex: F344/FEMALE, Route: ORAL, Dose: 0, 500, 1000, 2000 PPM IN DIET FOR 2 YR (STUDY DURATION: 2 YR), Dose: 0, 500, 1000, 2000 PPM IN DIET FOR 2 YR (STUDY DURATION: 2 YR)): inactive; negative

SMILES: O=C1C2(Cl)C3(Cl)C4(Cl)C(Cl)(Cl)C5(Cl)C3(Cl)C1(Cl)C5(Cl)C24Cl (centres undefined)
- carcinogen call (Species: MOUSE, Strain/Sex: B6C3F1/FEMALE, Route: ORAL, Dose: 20, 40 MG/KG IN DIET, TWA, Tumor Site: Type of Lesion: LIVER: HEPATOCELLULAR CARCINOMA): active; positive
- carcinogen call (Species: MOUSE, Strain/Sex: B6C3F1/MALE, Route: ORAL, Dose: 20, 23 MG/KG IN DIET, TWA, Tumor Site: Type of Lesion: LIVER: HEPATOCELLULAR CARCINOMA): active; positive
- carcinogen call (Species: RAT, Strain/Sex: OSBORNE-MENDEL/FEMALE, Route: ORAL, Dose: 18, 26 MG/KG IN DIET, TWA, Tumor Site: Type of Lesion: LIVER: HEPATOCELLULAR CARCINOMA): active; positive
- carcinogen call (Species: RAT, Strain/Sex: OSBORNE-MENDEL/MALE, Route: ORAL, Dose: 8, 24 MG/KG IN DIET, TWA, Tumor Site: Type of Lesion: LIVER: HEPATOCELLULAR CARCINOMA): active; positive

SMILES: O=CNNc1nc(-c2ccc([N+](=O)[O-])o2)cs1
- carcinogen call (Species: HAMSTER, Route: ORAL, Tumor Site: Type of Lesion: FORESTOMACH, URINARY BLADDER): active; positive
- carcinogen call (Species: MOUSE, Route: ORAL, Tumor Site: Type of Lesion: FORESTOMACH, HEMATOPOIETIC SYSTEM (LEUKEMIA), LUNG, STOMACH, Tumor Site: Type of Lesion: FORESTOMACH, HEMATOPOIETIC SYSTEM (LEUKEMIA), LUNG, STOMACH): active; positive
- carcinogen call (Species: RAT, Route: ORAL, Tumor Site: Type of Lesion: HEMATOPOIETIC SYSTEM (LEUKEMIA), KIDNEY, LIVER, MAMMARY GLAND, Tumor Site: Type of Lesion: HEMATOPOIETIC SYSTEM (LEUKEMIA), KIDNEY, LIVER, MAMMARY GLAND): active; positive

SMILES: O=[N+]([O-])c1ccc2ccc3c([N+](=O)[O-])c4ccccc4c4ccc1c2c34
- carcinogen call (Species: RAT, Strain/Sex: F344/MALE, Route: SUBCUTANEOUS IMPLANT, Dose: 0, 8, 40, 200, 1000 UG IN 50 µL BEESWAX/TRICAPRYLIN IMPLANTED FOR UP TO 45 WK (STUDY DURATION: 45 WK), Dose: 0, 8, 40, 200, 1000 UG IN 50 µL BEESWAX/TRICAPRYLIN IMPLANTED FOR UP TO 45 WK (STUDY DURATION: 45 WK)): inactive; negative
- carcinogen call (Species: RAT, Strain/Sex: F344/MALE, Route: SUBCUTANEOUS, Dose: 0, 8, 40, 200, 1000 UG SUSPENDED IN BEESWAX/TRICAPRYLIN (1:1) ONCE, Dose: 0, 8, 40, 200, 1000 UG SUSPENDED IN BEESWAX/TRICAPRYLIN (1:1) ONCE): inactive; negative

SMILES: N[C@@H](CS)C(=O)O
- carcinogen call (Species: RAT, Strain/Sex: F344/FEMALE, Route: ORAL, Dose: 0, 0.25, 0.5% IN DRINKING WATER FOR 108 WK (STUDY DURATION: 108 WK), Dose: 0, 0.25, 0.5% IN DRINKING WATER FOR 108 WK (STUDY DURATION: 108 WK)): inactive; negative
- carcinogen call (Species: RAT, Strain/Sex: F344/MALE, Route: ORAL, Dose: 0, 0.25, 0.5% IN DRINKING WATER FOR 108 WK (STUDY DURATION: 108 WK), Dose: 0, 0.25, 0.5% IN DRINKING WATER FOR 108 WK (STUDY DURATION: 108 WK)): inactive; negative

SMILES: CCN=[N+]([O-])CC
- carcinogen call (Species: RAT, Route: ORAL, Tumor Site: Type of Lesion: LIVER: HEMANGIOENDOTHELIOMA): active; positive
- carcinogen call (Species: RAT, Route: SUBCUTANEOUS, Tumor Site: Type of Lesion: MAMMARY GLAND, BRAIN (OLFACTORY BULB): NEUROBLASTOMA, BRAIN: GLIOMA HEMATOPOIETIC SYSTEM (LEUKEMIA), Tumor Site: Type of Lesion: MAMMARY GLAND, BRAIN (OLFACTORY BULB): NEUROBLASTOMA, BRAIN: GLIOMA HEMATOPOIETIC SYSTEM (LEUKEMIA)): active; positive
- carcinogen call (Species: RAT, Strain/Sex: F344/MALE, Route: ORAL, Dose: 0, 14, 55 MG/ML IN A NEUTRAL DEIONIZED DRINKING WATER SOLUTION 5 D/WK FOR 30 WK (TOTAL DOSE 42; 132 MG) (STUDY DURATION:, Dose: 0, 14, 55 MG/ML IN A NEUTRAL DEIONIZED DRINKING WATER SOLUTION 5 D/WK FOR 30 WK (TOTAL DOSE 42; 132 MG) (STUDY DURATION:, Tumor Site: Type of Lesion: LIVER: CARCINOMA, HEMANGIOSARCOMA, ESOPHAGUS: TUMOR, NASAL CAVITY: SQUAMOUS CELL CARCINOMA, ADENOCARCINOMA, Tumor Site: Type of Lesion: LIVER: CARCINOMA, HEMANGIOSARCOMA, ESOPHAGUS: TUMOR, NASAL CAVITY: SQUAMOUS CELL CARCINOMA, ADENOCARCINOMA): active; positive

SMILES: C[C@@H]1O[C@@H](OC[C@H]2O[C@@H](Oc3c(-c4ccc(O)c(O)c4)oc4cc(OS(=O)(=O)O)cc(OS(=O)(=O)O)c4c3=O)[C@H](O)[C@@H](O)[C@@H]2O)[C@H](O)[C@H](O)[C@H]1O
- carcinogen call (Species: RAT, Strain/Sex: SPRAGUE-DAWLEY/FEMALE, Route: GAVAGE, Dose: 0, 10, 27, 71, 188, 500 MG/KG 3/WK FOR 2 YR (STUDY DURATION: 2 YR), Dose: 0, 10, 27, 71, 188, 500 MG/KG 3/WK FOR 2 YR (STUDY DURATION: 2 YR)): inactive; negative
- carcinogen call (Species: RAT, Strain/Sex: SPRAGUE-DAWLEY/MALE, Route: GAVAGE, Dose: 0, 10, 27, 71, 188, 500 MG/KG 3/WK FOR 2 YR (STUDY DURATION: 2 YR), Dose: 0, 10, 27, 71, 188, 500 MG/KG 3/WK FOR 2 YR (STUDY DURATION: 2 YR)): inactive; negative
